For one experiment, the system named is dopamine release. In words: Determination of receptor activation/inhibition: dopamine release. The settings on record: for Emax (dopamine release): amount released relative to (S)-(-)-nicotine or TMA. The class given is biochemical. How it is done: Determination of Receptor Activation/Inhibition and Dopamine Release
Dopamine release was measured using the techniques described in U.S. Pat. No. 5,597,919 to Dull et al. Release is expressed as a percentage of release obtained with a concentration of (S)-(-)-nicotine resulting in maximal effects. Reported EC50 values are expressed in nM, and Emax values represent the amount released relative to (S)-(-)-nicotine or tetramethylammonium ion (TMA), on a percentage basis.
(§1) Reported IC50 values are expressed in nM and represent the concentration resulting in 50% inhibition of agonist induced receptor activation. Emax values represent the amount released relative to (S)-(-)-nicotine on a percentage basis.

A further experiment addresses T1, muscle-type receptors (Homo sapiens, UniProt P02708+P07510+Q07001).
T1 construct: endogenous in cells
Briefly: Determination of interaction with muscle receptors. The class given is biochemical. The note with it: percentage of the maximal activation induced by (S)-(-)-nicotine. How it is done:
Determination of Interaction with Muscle Receptors
The determination of the interaction of the compounds with muscle receptors was carried out in accordance with the techniques described in U.S. Pat. No. 5,597,919 to Dull et al. The maximal activation for individual compounds (Emax) was determined as a percentage of the maximal activation induced by (S)-(-)-nicotine. Reported Emax values represent the amount released relative to (S)-(-)-nicotine on a percentage basis.

For experiment [1], the target named is T2, CNS nicotinic receptors (Rattus norvegicus, UniProt P09483+P12390).
T2 construct: from tissue
T2 sequence (P09483 31-630): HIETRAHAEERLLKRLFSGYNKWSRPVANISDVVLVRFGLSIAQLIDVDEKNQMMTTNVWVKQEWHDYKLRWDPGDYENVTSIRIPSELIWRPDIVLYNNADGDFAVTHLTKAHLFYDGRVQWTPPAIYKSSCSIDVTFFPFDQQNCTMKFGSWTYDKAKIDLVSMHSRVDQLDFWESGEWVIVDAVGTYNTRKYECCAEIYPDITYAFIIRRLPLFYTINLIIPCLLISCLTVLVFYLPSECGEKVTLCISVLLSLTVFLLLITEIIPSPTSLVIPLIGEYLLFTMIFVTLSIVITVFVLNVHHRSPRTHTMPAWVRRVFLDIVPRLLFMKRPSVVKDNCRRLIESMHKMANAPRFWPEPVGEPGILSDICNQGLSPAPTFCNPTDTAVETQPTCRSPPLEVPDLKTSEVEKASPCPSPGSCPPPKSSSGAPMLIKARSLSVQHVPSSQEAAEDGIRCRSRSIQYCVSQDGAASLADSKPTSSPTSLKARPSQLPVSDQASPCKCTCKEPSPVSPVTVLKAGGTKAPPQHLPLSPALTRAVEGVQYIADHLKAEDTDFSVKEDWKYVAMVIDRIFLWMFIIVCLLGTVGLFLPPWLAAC
T2 sequence (P12390 25-500): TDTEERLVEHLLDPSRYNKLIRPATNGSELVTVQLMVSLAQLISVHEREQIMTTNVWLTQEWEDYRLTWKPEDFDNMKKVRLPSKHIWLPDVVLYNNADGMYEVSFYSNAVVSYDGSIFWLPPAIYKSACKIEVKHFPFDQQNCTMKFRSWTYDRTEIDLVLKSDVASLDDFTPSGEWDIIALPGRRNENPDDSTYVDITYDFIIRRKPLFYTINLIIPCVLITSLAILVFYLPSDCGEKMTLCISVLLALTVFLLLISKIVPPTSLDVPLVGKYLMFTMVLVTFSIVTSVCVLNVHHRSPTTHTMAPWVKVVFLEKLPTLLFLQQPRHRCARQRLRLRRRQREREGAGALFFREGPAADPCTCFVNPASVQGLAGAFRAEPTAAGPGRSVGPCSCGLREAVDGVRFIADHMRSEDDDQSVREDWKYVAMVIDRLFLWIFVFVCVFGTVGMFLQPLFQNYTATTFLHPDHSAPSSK
Briefly: Determination of binding to relevant receptor sites. Here is the method: Determination of Binding to Relevant Receptor Sites
Binding of the compounds to relevant receptor sites was determined in accordance with the techniques described in U.S. Pat. No. 5,597,919 to Dull et al. Inhibition constants (Ki values), reported in nM, were calculated from the IC50 values using the method of Cheng et al., Biochem, Pharmacol. 22:3099 (1973).

The target in a further experiment is T3, ganglia-type receptors (Rattus norvegicus, UniProt P04757+P12392).
T3 construct: endogenous in cells
T3 sequence (P04757 26-499): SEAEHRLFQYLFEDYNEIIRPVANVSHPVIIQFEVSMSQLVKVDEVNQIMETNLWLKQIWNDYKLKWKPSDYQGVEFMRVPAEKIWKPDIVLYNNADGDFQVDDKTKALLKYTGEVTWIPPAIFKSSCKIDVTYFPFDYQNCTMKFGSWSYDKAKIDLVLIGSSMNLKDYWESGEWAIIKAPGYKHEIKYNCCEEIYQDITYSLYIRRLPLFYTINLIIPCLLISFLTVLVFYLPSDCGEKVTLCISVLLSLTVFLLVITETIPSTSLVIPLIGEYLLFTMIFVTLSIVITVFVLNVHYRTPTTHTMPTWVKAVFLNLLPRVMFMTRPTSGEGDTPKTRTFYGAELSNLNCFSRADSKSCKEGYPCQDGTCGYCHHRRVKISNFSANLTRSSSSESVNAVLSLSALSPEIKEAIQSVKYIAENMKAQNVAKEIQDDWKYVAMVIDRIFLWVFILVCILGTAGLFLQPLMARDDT
T3 sequence (P12392 21-495): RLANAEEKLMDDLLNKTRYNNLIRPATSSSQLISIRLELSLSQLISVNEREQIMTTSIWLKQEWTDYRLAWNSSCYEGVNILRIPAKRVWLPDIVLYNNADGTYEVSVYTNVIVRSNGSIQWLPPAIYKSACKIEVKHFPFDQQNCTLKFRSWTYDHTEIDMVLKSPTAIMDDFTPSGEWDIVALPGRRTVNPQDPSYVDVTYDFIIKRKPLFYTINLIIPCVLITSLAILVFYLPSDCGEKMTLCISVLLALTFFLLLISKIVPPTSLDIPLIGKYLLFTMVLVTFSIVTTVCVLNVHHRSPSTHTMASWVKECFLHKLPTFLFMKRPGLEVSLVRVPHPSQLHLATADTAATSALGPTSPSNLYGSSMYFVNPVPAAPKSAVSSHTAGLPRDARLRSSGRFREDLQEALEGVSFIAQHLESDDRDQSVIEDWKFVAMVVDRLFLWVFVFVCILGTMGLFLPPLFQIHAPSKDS
Briefly: Determination of interaction with ganglion receptors. The class given is biochemical. The note with it: percentage of the maximal activation induced by (S)-(-)-nicotine. Here is the method:
Determination of Interaction with Ganglion Receptors
The determination of the interaction of the compounds with ganglionic receptors was carried out in accordance with the techniques described in U.S. Pat. No. 5,597,919 to Dull et al. The maximal activation for individual compounds (Emax) was determined as a percentage of the maximal activation induced by (S)-(-)-nicotine. Reported Emax values represent the amount released relative to (S)-(-)-nicotine on a percentage basis.

The target in experiment [2] is T2, CNS nicotinic receptors. In words: Isotopic rubidium ion release. The format is biochemical. The note with it: for Emax: read-out: Emax (rubidium ion release). How it is done: Isotopic rubidium release was measured using the techniques described in Bencherif et al., JPET, 279: 1413-1421 (1996). Reported EC50 values are expressed in nM, and Emax values represent the amount of rubidium ion released relative to 300 uM tetranmethylammonium ion, on a percentage basis.
as §1

The mark [3] stands for this setting: calculated from IC50 values using the method of Cheng et al., read-out: Ki.
Where [4] appears, read: read-out: EC50 (rubidium ion release).

Like-named read-outs stand apart in the source and are kept apart here.

T1 sequence (P02708 21-457): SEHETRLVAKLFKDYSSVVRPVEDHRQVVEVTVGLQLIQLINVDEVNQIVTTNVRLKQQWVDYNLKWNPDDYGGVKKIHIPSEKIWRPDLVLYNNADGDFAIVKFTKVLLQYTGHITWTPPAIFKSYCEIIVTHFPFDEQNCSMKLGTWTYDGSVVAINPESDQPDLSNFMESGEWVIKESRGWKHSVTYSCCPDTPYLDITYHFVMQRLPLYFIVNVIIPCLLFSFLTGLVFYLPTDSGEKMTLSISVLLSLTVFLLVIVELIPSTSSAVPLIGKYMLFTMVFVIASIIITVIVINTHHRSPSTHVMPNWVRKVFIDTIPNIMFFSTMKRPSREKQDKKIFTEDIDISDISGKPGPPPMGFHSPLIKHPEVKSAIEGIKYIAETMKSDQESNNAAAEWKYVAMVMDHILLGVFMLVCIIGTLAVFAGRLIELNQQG
T1 sequence (P11230 24-501, further chain): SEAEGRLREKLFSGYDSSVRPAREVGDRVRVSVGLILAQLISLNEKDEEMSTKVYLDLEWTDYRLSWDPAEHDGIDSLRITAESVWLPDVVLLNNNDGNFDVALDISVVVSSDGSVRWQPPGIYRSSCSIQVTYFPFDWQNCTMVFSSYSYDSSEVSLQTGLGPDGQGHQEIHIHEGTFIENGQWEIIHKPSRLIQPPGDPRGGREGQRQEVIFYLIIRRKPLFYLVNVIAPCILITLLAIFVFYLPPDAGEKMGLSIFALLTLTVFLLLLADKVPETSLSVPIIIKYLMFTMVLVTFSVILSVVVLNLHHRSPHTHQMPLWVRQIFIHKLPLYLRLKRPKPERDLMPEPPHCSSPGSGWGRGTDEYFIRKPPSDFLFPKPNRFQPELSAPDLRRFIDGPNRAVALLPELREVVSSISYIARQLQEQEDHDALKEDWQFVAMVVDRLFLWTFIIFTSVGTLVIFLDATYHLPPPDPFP
T1 sequence (P07510 23-517): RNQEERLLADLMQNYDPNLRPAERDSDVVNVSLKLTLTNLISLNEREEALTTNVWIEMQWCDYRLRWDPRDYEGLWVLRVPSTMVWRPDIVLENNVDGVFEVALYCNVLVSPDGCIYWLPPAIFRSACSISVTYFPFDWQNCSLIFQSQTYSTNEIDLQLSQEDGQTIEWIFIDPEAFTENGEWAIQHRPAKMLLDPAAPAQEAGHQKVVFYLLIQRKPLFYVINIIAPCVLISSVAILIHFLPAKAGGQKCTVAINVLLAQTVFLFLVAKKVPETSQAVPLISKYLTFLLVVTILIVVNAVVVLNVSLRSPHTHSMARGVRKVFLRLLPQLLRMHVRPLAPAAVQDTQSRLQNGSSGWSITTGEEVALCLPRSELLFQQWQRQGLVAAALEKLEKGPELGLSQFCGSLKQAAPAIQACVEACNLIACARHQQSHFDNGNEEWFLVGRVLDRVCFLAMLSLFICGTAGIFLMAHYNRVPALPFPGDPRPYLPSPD
T1 sequence (Q07001 22-517): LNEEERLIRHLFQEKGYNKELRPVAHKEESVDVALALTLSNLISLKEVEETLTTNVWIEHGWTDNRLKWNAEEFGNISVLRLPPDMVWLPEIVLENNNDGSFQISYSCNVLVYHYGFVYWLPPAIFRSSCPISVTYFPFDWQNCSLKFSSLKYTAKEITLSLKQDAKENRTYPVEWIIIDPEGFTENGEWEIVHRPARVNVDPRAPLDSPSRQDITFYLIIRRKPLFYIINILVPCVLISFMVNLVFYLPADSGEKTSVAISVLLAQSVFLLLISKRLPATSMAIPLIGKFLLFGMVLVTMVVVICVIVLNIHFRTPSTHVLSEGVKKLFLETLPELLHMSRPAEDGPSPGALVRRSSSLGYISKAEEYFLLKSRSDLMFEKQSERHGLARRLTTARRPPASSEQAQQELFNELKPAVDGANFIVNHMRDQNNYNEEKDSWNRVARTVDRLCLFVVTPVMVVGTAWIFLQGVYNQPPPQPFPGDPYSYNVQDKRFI

The term Emax denotes the size of the effect at its maximum, as opposed to the concentration needed. The Ki is a dissociation constant, usually derived from enzyme kinetics or from competition with a known ligand. With `c1cncc(C2C3CC4CC(C3)CN2C4)c1` (stereo not drawn) [Sample No. 1, 1-aza-2-(3-pyridyl)-tricyclo[3.3.1.1^3,7]decane], the “Emax (dopamine release)” value in the experiment with dopamine release was 0%. Moreover, the maximal response (Emax) at muscle-type receptors worked out at 21%; at ganglia-type receptors, 27%. Besides, the Ki at CNS nicotinic receptors [1] (setting [3]) was 15 nM.
Broadly, the EC50 is the concentration at which the effect is half-maximal. For the molecule `Brc1cncc(C2C3CC4CC(C3)CN2C4)c1` (stereo not drawn) [Sample No. 2, 1-aza-2-[5-bromo(3-pyridyl)]tricyclo[3.3.1.1^3,7]decane], the EC50 on CNS nicotinic receptors [2] (setting [4]) was over 100000 nM. Also, the figures for the Emax at CNS nicotinic receptors [2], at muscle-type receptors and on ganglia-type receptors were 0%, 32% and 50%, respectively. The “Emax (dopamine release)” value in the experiment with dopamine release worked out at 0%. At CNS nicotinic receptors [1], the Ki was determined as 2 nM.
`Cl.Cl.Cl.Nc1cncc(C2C3CC4CC(C3)CN2C4)c1` (stereo not drawn) [Sample No. 3, 1-aza-2-[5-amino-(3-pyridyl)]tricyclo[3.3.1.1^3,7]decane trihydrochloride] came in with an EC50 on CNS nicotinic receptors [2] of over 100000 nM. Moreover, the Emax was found to be 0% on CNS nicotinic receptors [2], 75% at muscle-type receptors and 17% at ganglia-type receptors. In the experiment with dopamine release, the “Emax (dopamine release)” value was 0%. For the same molecule, the Ki at CNS nicotinic receptors [1] (setting [3]) was 44 nM.
In general, IC50 refers to the concentration needed to halve the response being measured. A higher IC50 goes with a need for much substance. Turning to `CCOc1cncc(C2C3CC4CC(C3)CN2C4)c1` (stereo not drawn) [Sample No. 4, 1-aza-2-[5-ethoxy-(3-pyridyl)]-tricyclo-[3.3.1.1^3,7]decane], the results for the IC50 against CNS nicotinic receptors [2] and on dopamine release (50% inhibition of agonist induced receptor activation) were 630 nM and 846 nM, respectively. Further, the EC50 at CNS nicotinic receptors [2] (setting [4]) is over 100000 nM. Besides, the Emax came out at 0% on CNS nicotinic receptors [2], 22% on muscle-type receptors and 0% on ganglia-type receptors. In addition, the “Emax (dopamine release)” value in the experiment on dopamine release is recorded as 0%. The molecule also had a Ki on CNS nicotinic receptors [1] of 1 nM.
As for `CC(C)Oc1cncc(C2C3CC4CC(C3)CN2C4)c1` (stereo not drawn) [Sample No. 5, 1-aza-2-[5-isopropoxy-(3-pyridyl)]tricyclo[3.3.1.1^3,7]decane], the EC50 on CNS nicotinic receptors [2] (setting [4]) was over 100000 nM. Moreover, the Emax was 0% at CNS nicotinic receptors [2], 114% at muscle-type receptors and 7% at ganglia-type receptors. Further, the “Emax (dopamine release)” value in the experiment on dopamine release is given as 0%. On CNS nicotinic receptors [1], this molecule registered a Ki of 24 nM.

The values are drawn from patent US5952339A, “Pharmaceutical compositions and methods of using nicotinic antagonists for treating a condition or disorder characterized by alteration in normal neurotransmitter release” (priority 1998, dated 1999).
